For test [1], the system named is INS-1 cells. Description: Protection of INS-1 cells from cytokine-induced cell death. The format is cell-based, rat. As to the method: The effects of LSF analogs on β-cells in the […] insulin-secreting INS-1 cell line were investigated. Cells were maintained in RPMI 1640 medium (Life Technologies, Inc., Gaithersburg, Md.) supplemented with 10% heat-inactivated FBS, 10 mm HEPES, 200 μm L-glutamine, 1 mm sodium pyruvate, […] 2-mercaptoethanol, 50 U/ml penicillin, and 50 μg/ml streptomycin at pH 7.4. The cells were cultured at 37° C. in a humidified incubator supplied with 5% carbon dioxide. Fresh medium was replaced every 2 days. The cells were plated at a density of […]. Culture vessels were coated with poly-D-lysine and gelatin (Sigma, St. Louis, Mo.) to retain detached and dead cells so that seeding cell numbers reflect the actual cell numbers after all treatment conditions. INS-1 cells were treated with the combination of recombinant mouse IL-1β (5 ng/ml), IFNγ (100 ng/ml), and TNFα (10 ng/ml; R&D Systems, Inc., Minneapolis, Minn.) suspended in complete RPMI medium. LSF (provided by Cell Therapeutics, Inc., Seattle, Wash.) and analogs were added simultaneously with the cytokines in complete RPMI medium. All treatments were performed for 18 hours.
INS-1 cells were treated with a combination of recombinant IL-1β, INFγ, and TNFα with 10^−5-10^3 μM LSF and its analogs. […] There was no further increase in β-cell protection when the LSF concentration was increased from 10^−2 to 10^2 μM. […] No further increases in β-cell protection were observed when analog concentrations were increased.
The effects of LSF analogs on insulin secretion in INS-1 cells with and without inflammatory cytokines. β-Cells were treated with apoptosis detecting dye for 2-3 hours at room temperature. Apoptotic cells were recognized with purple-red color under a microscope. After washing to eliminate free dye and adding dye release reagent, color density was quantified by reading at OD 450 nm. […] Insulin secreted into the supernatant was measured by RIA with mouse insulin as a standard. […]

Test [2] concerns human islets. Description: Cell death of human islets exposed to cytokines. It counts as cell-based. To be noted: human β-cells. As to the method:
Four compounds (CPW7, CPW8, CPW11, and CPW12) were also evaluated on human islets for the induction of insulin secretion, intracellular ATP concentrations and the effect of reducing cell death exposed to cytokines (combination of human IL-1β, IFN-γ, and TNF-α). The results are illustrated FIGS. 7A-7D.

In the case of `C[C@@H](O)CCCCOc1n[nH]c(=O)c2ccccc12` [CPW12], in test [1] (concentration of 10^−2 μM), the “β-cell protective activity compared with LSF” value was “comparative activity with LSF”. The “protective effects on β-cells” value in test [1] (cytokine-induced cell death) is recorded as “effective at low concentrations”. Moreover, in test [2], the maintaining cell viability entry is recorded as “beneficial effect”.
